Experimental data: PMC12724231, “APC24-7, a covalent combination of boronic acid and chelator moieties, restores β-lactam efficiency against metallo-β-lactamase-producers” (mSphere, 2025)

Assays:
Escherichia coli MP21-05 = test system: T1, Escherichia coli MP21-05; experiment: microbe, parasite or virus in culture; parameters: species or system E. coli E. cloni 10G; Microdilution MIC of inhibitor alone in LB, OD600 read-out, E. coli 10G without or with empty vector; details: MP2105, inhibitor alone, read-out: MIC APC24-7
T1 construct: MP21-05
Description: (§1) Susceptibility testing of isogenic E. coli E. cloni 10G (Table 2) was determined by both the microdilution assay. […] Overnight cultures were prepared in LB supplemented with 25 mg/L chloramphenicol at 37°C under shaking at 700 rpm. The overnight cultures were diluted in PBS to 10^6 CFU/ mL, followed by inoculation in LB to ~10^5 CFU in 384-well plates (VWR, Radnor, PA, USA). Plates were prepared with twofold increasing concentrations of meropenem and cefepime ([…], respectively) to a total inoculated volume of 100 µL Plates were incubated at 37°C without shaking for 19–21 h. OD600 was determined in a SpectraMax Plus plate reader (Molecular Devices).

Escherichia coli MP32-64 = test system: T2, Escherichia coli MP32-64; experiment: microbe, parasite or virus in culture; parameters: species or system E. coli E. cloni 10G; Microdilution MIC of inhibitor alone in LB, OD600 read-out, E. coli 10G without or with empty vector; details: MP3264, inhibitor alone, read-out: MIC APC24-7
T2 construct: MP32-64
Description: as §1

VIM-7 = VIM-7 (Pseudomonas aeruginosa, UniProt Q840P9); experiment: biochemical; parameters: Residual beta-lactamase activity; meropenem (NDM-1, 300 nm) or nitrocefin (others, 480 nm) hydrolysis, 1 uM Zn2+ (OXA-48: bicarbonate)
VIM-7, sequence (Q840P9 18-265): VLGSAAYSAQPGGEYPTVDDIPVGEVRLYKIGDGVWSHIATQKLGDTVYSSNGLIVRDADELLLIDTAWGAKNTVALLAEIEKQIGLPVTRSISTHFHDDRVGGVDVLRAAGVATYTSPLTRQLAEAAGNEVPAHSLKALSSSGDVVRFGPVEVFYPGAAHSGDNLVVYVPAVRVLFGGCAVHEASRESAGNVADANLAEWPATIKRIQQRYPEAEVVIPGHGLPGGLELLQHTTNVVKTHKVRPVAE
Description: (§2) IC50 determination with purified enzymes was performed as previously described ([40]). In brief, enzymes were diluted in 50 mM HEPES, pH 7.5, supplemented with 1 µM Zn^2+. For OXA-48, 50 mM HEPES, pH 7.5, was supplemented with 50 mM sodium bicarbonate buffer solution (Sigma Aldrich). Enzymes and inhibitors were mixed at various inhibitor concentrations, and absorbance was measured by spectrophotometry (Table S5). For NDM-1 and MBP-NDM-9, the hydrolysis of meropenem (24 µM) was monitored at 300 nm using UV- transparent 96-well plates (Corning, Kennebunk, ME). For all other enzymes, nitrocefin (24 µM, Millipore Sigma, USA) hydrolysis was monitored at 480 nm. The residual enzyme activity at various inhibitor concentrations was calculated in comparison to the initial reaction velocity of the inhibitor-free […] control. Dose-response curves were fitted using nonlinear regression in GraphPad Prism v. 10.5.0. All tests were performed at least in duplicates at 25°C.

NDM-1 = target: T3, NDM-1 (Klebsiella pneumoniae, UniProt C7C422); experiment: biochemical; parameters: Residual beta-lactamase activity; meropenem (NDM-1, 300 nm) or nitrocefin (others, 480 nm) hydrolysis, 1 uM Zn2+ (OXA-48: bicarbonate)
T3 construct: gene blaNDM-1
T3 sequence (C7C422 29-270 limits assumed): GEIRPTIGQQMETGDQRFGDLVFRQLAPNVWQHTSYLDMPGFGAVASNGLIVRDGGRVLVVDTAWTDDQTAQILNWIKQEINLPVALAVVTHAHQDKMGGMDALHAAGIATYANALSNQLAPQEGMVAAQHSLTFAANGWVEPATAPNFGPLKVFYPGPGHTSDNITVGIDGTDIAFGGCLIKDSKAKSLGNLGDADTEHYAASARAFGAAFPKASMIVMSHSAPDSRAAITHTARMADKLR
Description: as §2

OXA-48 = OXA-48 (Klebsiella pneumoniae, UniProt Q6XEC0); experiment: biochemical; parameters: Residual beta-lactamase activity; meropenem (NDM-1, 300 nm) or nitrocefin (others, 480 nm) hydrolysis, 1 uM Zn2+ (OXA-48: bicarbonate)
OXA-48, sequence (Q6XEC0 23-265 limits assumed): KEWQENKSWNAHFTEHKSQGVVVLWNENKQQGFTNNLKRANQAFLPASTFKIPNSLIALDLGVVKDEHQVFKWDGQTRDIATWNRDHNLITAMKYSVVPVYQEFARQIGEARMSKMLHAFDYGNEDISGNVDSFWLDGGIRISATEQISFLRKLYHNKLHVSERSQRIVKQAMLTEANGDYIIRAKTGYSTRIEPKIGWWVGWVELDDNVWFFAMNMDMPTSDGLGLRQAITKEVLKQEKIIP
Description: as §2

VIM-2 = target: T4, VIM-2 (Pseudomonas aeruginosa, UniProt Q9K2N0); parameters: Residual beta-lactamase activity; meropenem (NDM-1, 300 nm) or nitrocefin (others, 480 nm) hydrolysis, 1 uM Zn2+ (OXA-48: bicarbonate); details: inhibitor
T4 construct: gene blaVIM-2
Description: as §2

[1] = test system: T5, Klebsiella pneumoniae BAA-2146™; experiment: microbe, parasite or virus in culture; parameters: species or system clinical isolates of E. coli and K. pneumoniae; details: Klebsiella pneumoniae, BAA2146; inhibitor alone; read-out: MIC APC24-7
T5 construct: ATCC BAA-2146
Description: (§3) MICs for clinical isolates were determined in a broth microdilution assay according to Clinical and Laboratory Standards Institute (CLSI) ([75]), using cation-adjusted Mueller-Hinton broth (Thermo Fisher Scientific, Lenexa, USA). The direct colony suspension method was utilized by preparing an inoculum of an OD600 0.17, except for E. coli #36 in which 0.10 was used, which equated to a concentration of 10^8 colony-forming units (CFU) per mL. Inoculum controls were included for all assays ([76]). […] Subsequently, we aimed to identify a potent β-lactam/APC24-7 combination capable of reversing β-lactamase-mediated BL resistance in our clinical isolates. All 16 isolates were exposed to increasing concentrations of meropenem (carbapenem), aztreonam (monobactam), ceftazidime and cefepime (cephalosporins), as well as amoxicillin (penicillin), both in the absence and presence of 57 µM (32 mg/L) of APC24-7. The effectiveness of these combinations was assessed based on their ability to resensitize the clinical isolates according to the clinical breakpoints (EUCAST clinical breakpoint table version 15.0, www.eucast.org).

[2] = test system: T6, Klebsiella pneumoniae K46-62; experiment: microbe, parasite or virus in culture; parameters: species or system clinical isolates of E. coli and K. pneumoniae; details: Klebsiella pneumoniae, K4662; inhibitor alone; read-out: MIC APC24-7
T6 construct: K46-62
Description: as §3

[3] = test system: T7, Klebsiella pneumoniae BAA1705™; experiment: microbe, parasite or virus in culture; parameters: species or system clinical isolates of E. coli and K. pneumoniae; details: Klebsiella pneumoniae, BAA1705; inhibitor alone; read-out: MIC APC24-7
T7 construct: ATCC BAA-1705
Description: as §3

[4] = test system: T8, Escherichia coli BAA-2469™; experiment: microbe, parasite or virus in culture; parameters: species or system clinical isolates of E. coli and K. pneumoniae; details: Escherichia coli, BAA2469; inhibitor alone; read-out: MIC APC24-7
T8 construct: ATCC BAA-2469
Description: as §3

Structure (SMILES): O=C(N[C@H]1Cc2cccc(C(=O)O)c2OB1O)c1ccc(CNCCN(Cc2ccccn2)Cc2ccccn2)cc1 [APC24-7]
- MIC (Escherichia coli MP21-05): > 906 µM
- MIC (Escherichia coli MP32-64): > 906 µM
- IC50 (VIM-7): 1080 nM
- IC50 (NDM-1): 140 nM
- IC50 (OXA-48): 420 nM
- IC50 (VIM-2): 110 nM
- MIC [1]: > 906 µM
- MIC [2]: > 906 µM
- MIC [3]: > 906 µM
- MIC [4]: > 906 µM
